This note sets out measurements from EPA's ToxValDB 9.5 (doi:10.2903/j.efsa.2016.4452).

Data set [1] concerns Canidae. The settings on record: chronic; duration: 1 years; oral; Dog Other; organ weight.
For data set [2], the system named is Anas platyrhynchos. The settings on record: reproductive; duration: 20 weeks; oral; feed; M.
The subject of data set [3] is Apis mellifera. The following applies: acute, mortality.
Data set [4] has as its system Bibionidae. The settings on record: chronic/long-term; duration: 28 days; reproduction.
The test system of data set [5] is Colinus virginianus. The settings on record: acute, oral, diet, mortality.
Data set [6] deals with Daphnia magna. The settings on record: chronic/long-term; duration: 21 days; reproduction.
Data set [7] deals with Folsomia candida. The following applies: chronic/long-term; duration: 28 days.
The subject of data set [8] is Lepomis macrochirus. The following applies: acute; duration: 96 hours; mortality.
For data set [9], the system named is Oryctolagus sp. The following applies: reproduction developmental; no effects.
Data set [10] relates to Pimephales promelas. The settings on record: chronic/long-term; duration: 28 days; reproduction.
In data set [11] the test system is Rattus norvegicus.
Data set [12] relates to Tagia sp.
The subject of data set [13] is Aphidius rhopalosiphi. In words: LR50; higher = less toxic. The settings on record: not reported; mortality.

As a reminder, the LOAEL is the lowest dose or exposure tested at which an adverse effect was seen. Consider `O=c1[nH]c(-c2cc(Br)nn2-c2ncccc2Cl)nc2c(Br)cc(Cl)cc12` [Cyclaniliprole metabolite (NSY-28)], for which the lowest observed adverse effect level (LOAEL) in [1] was 1.29 mg/kg-day.

In general, NOAEL refers to the highest dose or exposure tested at which no adverse effect was seen. Turning to `CC(NC(=O)c1cc(Cl)cc(Br)c1NC(=O)c1cc(Br)nn1-c1ncccc1Cl)C1CC1` (stereo not drawn) [Cyclaniliprole], the NOAEL came out at 2.7 mg/kg-day in data set [2]; 1000 mg/kg-day in data set [9]; 1000 mg/kg-day in data set [11] (reproduction developmental, no effects). In addition, the LD50 in data set [3] (dermal) was 0.486 µg/piece; in [3] (oral, unspecified), 0.194 µg/piece; in data set [5] (duration: 8 days), over 1000 mg/kg-day; in [5] (duration: 14 days), over 2000 mg/kg-day; in data set [11] (acute, oral, mortality), over 2000 mg/kg-day. The NOEC amounted to 0.061 mg/kg in data set [4]; 0.015 mg/L in data set [6]; 1.25 mg/kg in data set [7]; 0.2 mg/L in [10]; 500 mg/kg in [12] (chronic/long-term, duration: 56 days). Also, the LOAEL in data set [1] came out at 1.29 mg/kg-day. Also, the LC50 in data set [8] is over 0.15 µg/mL; in [12] (acute, duration: 14 days, mortality) it was over 500 mg/kg. In data set [13], the LR50 was determined as 0.507 g/ha.
